Tests used:
[1] = system: streptozotocin-induced diabetic rats; assay: in vivo antidiabetic activity, fasting plasma glucose level; design: species or system Wistar rats; settings: STZ-induced diabetic rats, 0.5 mg/kg, 28th day
Procedure: (§1) The antidiabetic activity of the synthesized compound 10d was evaluated using a streptozotocin-induced diabetic rats model.
(§2) Male Wistar rats weighing 150 to 230 gm were used for the study which were housed in polyacrylic cages (no more than six animals per cage) with dimensions of 38 × 23 × 10 cm and maintained under standard laboratory conditions with a dark/light cycle of 14 h of dark and 10 h of light at a temperature of 25 °C. The animals were provided with a standard diet (dry pellet) and water ad libitum. Before the start of the experimental procedures, the rats were acclimatized to laboratory conditions for 10 days. All the experiments were approved and performed as per the guidelines of the Departmental Research Ethics Committee under letter No. DREC/050 [49].
(§3) Non-insulin-dependent diabetes mellitus was induced in fasted rats weighing 150–230 gm using a single dose of streptozotocin (STZ) at a dose of 60 mg/kg intraperitoneally after 15 min of the administration of nicotinamide at a 120 mg/kg dose i.p. Nicotinamide was prepared in normal saline while in citrate buffer (pH 4.5), STZ was prepared. After the induction of diabetes, the increase in the plasma glucose level was measured at 72 h and then measured on the 7th day to confirm hyperglycemia. For the diagnosis of diabetes, the threshold value of the fasting plasma glucose level was considered to be more than 126 mg/dl. For the study, only the animals with permanent NIIDM were utilized.
The animals were classified into 5 groups with 6 animals in each group (n = 6). […] The fasting glucose concentration was measured on the 0, 7th, 14th, and 28th day of the administration of the extract. During the experimental tenure, the weights of the rats were determined daily and the mean change was recorded.

[2] = system: streptozotocin-induced diabetic rats; assay: effect on serum lipid profile of diabetic animals; assay type: in vivo, Wistar rats; settings: compared to diabetic control group
Procedure: as §1, §2, §3
(§4) The animals were classified into 5 groups with 6 animals in each group (n = 6). Group I comprised of normal control rats which were daily administered drinking water only; group II served as diabetic control rats (disease group); group III served as the positive control and were administered 0.5 mg/kg of the standard drug glibenclamide; and group IV and V served as the test group rats and were administered the test compound 10d at 10 mg/kg and 20 mg/kg, respectively, for twenty-eight days. The fasting glucose concentration was measured on the 0, 7th, 14th, and 28th day of the administration of the extract. During the experimental tenure, the weights of the rats were determined daily and the mean change was recorded.
(§5) The animals were euthanized (sacrificed) via cervical dislocation on the 28th day to observe the biochemical parameters. The parameters studied were triglyceride (TGL), cholesterol, low-density lipoprotein, and high-density lipoprotein (LDL and HDL). The Minias Globe Diagnostic kits were used for cholesterol and TGL. Semi-autoanalyzers were used for the analysis. The serum samples from the rats were also checked for alanine aminotransferase (ALT), aspartate aminotransferase (AST), lactate dehydrogenase (LDH), serum alkaline phosphatase (ALP), and creatinine and urea levels utilizing commercially available kits of Crest Biosystems. The statistical analysis was also performed as per the previous procedure.

[3] = system: streptozotocin-induced diabetic rats; assay: liver and renal serum biomarkers; assay type: in vivo, Wistar rats; settings: 0.5 mg/kg, 28th day
Procedure: as §3, §4, §5

[4] = system: streptozotocin-induced diabetic rats; assay: effect on body weight; assay type: in vivo, Wistar rats; settings: glibenclamide group, 0.5 mg/kg
Procedure: as §1, §2, §3, §4

With `COc1ccc(Cl)cc1C(=O)NCCc1ccc(S(=O)(=O)NC(=O)NC2CCCCC2)cc1` [Glibenclamide, glibenclamide, reference compound] the blood glucose level [1] was 72.44 ± 3.58 mg/dL, the HDL level [2] was “greater than before” and the LDL in serum [2] was “significant decline”. For the same compound, the “total cholesterol level in serum” value [2] was “significant decline”, the triglyceride in serum [2] was “significant decline” and the ALP [3] was 124.42 ± 2.35 U/L. For the same compound, the ALT [3] was 76.23 ± 2.13 U/L, the AST [3] was 80.36 ± 2.12 U/L and the Creatinine [3] was 0.44 ± 0.04 ^ns mg/dl. For the same compound, the LDH [3] was 826.21 ± 5.60 U/L, the Urea [3] was 42.45 ± 2.21 mg/dL and the “Change in Body Weight, After Induction” value [4] was 160.52 ± 2.23 gm. For the same compound, the “Change in Body Weight, Before Induction” value [4] was 180.66 ± 1.67 ^ns gm and the “Change in Body Weight, After Treatment” value ([4]; 28 days) was 176.90 ± 4.45 gm.
